In patent publication US20040028752A1, “Topical pharmaceutical composition comprising a cholinergic agent or a calcium channel blocker” (S.L.A. Pharma AG., priority 2002, published 2004):
Read-outs that look alike come from different tables or passages of the source.

Columns and labels:
[1] = tested on: chronic anal fissures; test: Open study of bethanechol cream in patients with chronic anal fissures; type: in vivo, human; settings: 0.1% cream three times daily
Text: The 0.1% bethanechol cream of example 3 was applied to the anus three times daily for an eight week course to treat patients suffering from chronic anal fissures (in an uncontrolled, open, pilot study). To date, 6 patients have been treated and followed up for 3 to 5 weeks. Four patients have had complete resolution of symptoms, of whom 3 have complete and 1 partial healing of the fissure. In all of these 4 patients there has been a reduction of the maximum resting anal sphincter pressure to within normal limits. One patient discovered they were pregnant and treatment was discontinued. The last patient has had no relief and remains symptomatic after 4 weeks' follow up.

[2] = tested on: resting anal sphincter pressure; test: Bethanechol dose ranging study in healthy volunteers; type: in vivo, human
Text: Bethanechol cream at concentrations of 0.05%, 0.1%, 0.5% and 1% w/w bethanechol were made up in accordance with example 1. The compositions were studied following initial experimentation in an open way to determine a clinically effective dose range. […] Maximal effect was produced by application of 0.1% bethanechol and higher concentrations of the cream produced no additional effect. At 0.1% w/w bethanechol, the mean resting pressure was reduced from about 110 cm to about 85 cm H2O (about 25% decrease). A typical ‘one inch’ application of this cream from the tube is equivalent to 400 mcg of bethanechol.

[3] = tested on: mean anal resting pressure; test: Study of example 4 repeated using oral diltiazem
[4] = tested on: resting anal sphincter pressure; test: Diltiazem dose ranging study on healthy volunteers, eight channel water perfused manometer; type: in vivo, human
Text: Concentrations of diltiazem cream used were 0.1%, 0.5%, 1%, 2%, 5% and 10%. […] The maximal effect, at which the mean resting anal pressure was lowered by 28% (P<0.0001), was produced by 2% w/w cream (See FIG. 1).

[5] = tested on: chronic anal fissures; test: Open study of diltiazem cream in patients with anal fissures; type: in vivo, human
Text: 2% diltiazem cream from example 2 was applied to the anus three times daily for 8 weeks to treat patients suffering from chronic anal fissures (in an uncontrolled, open, pilot study). To date, 7 patients were studied and followed up between 2 to 5 weeks. 5 patients have had complete resolution of symptoms, of whom 3 have complete and 2 partial healing of the fissure. In four of these 5 patients there has been a reduction of the maximum resting anal sphincter pressure to within normal limits. The last patient, though symptom free, continues to have a high anal resting pressure.
2 patients have only had two weeks of treatment and one is symptom free after this short period, whilst the other still has occasional pain. It is too early to comment on healing of fissures in these two patients.

[6] = tested on: internal anal resting pressure; settings: given orally at 60 mg; cited from earlier work
[7] = tested on: internal anal resting pressure; settings: topical use; cited from earlier work
[8] = tested on: maximum resting pressures in the anal canal; settings: after 1 hour, patients with anal fissures; cited from earlier work
[9] = among the four patients with complete resolution of symptoms
[10] = 2% cream three times daily, among the 5 patients with complete resolution of symptoms

CC(C[N+](C)(C)C)OC(N)=O (centres unmarked) [bethanechol]
patients with complete resolution of symptoms ([1]; 6 patients treated, follow up 3 to 5 weeks): Four
patients with complete healing of the fissure [1, 9]: 3 patients
patients with partial healing of the fissure [1, 9]: 1 patients
patients with reduction of the maximum resting anal sphincter pressure to within normal limits ([1]; of the 4 symptom-free patients): 4 patients
decrease of mean resting pressure ([2]; 0.1% w/w bethanechol topical, healthy volunteers): about 25%
mean resting pressure after application ([2]; 0.1% w/w bethanechol topical, healthy volunteers, reduced from about 110 cm): about 85 cm H2O
effect on resting anal sphincter pressure ([2]; topical 0.05%, 0.1%, 0.5% and 1% w/w): dose dependent reduction
effect of a single application sustained from ([2]; topical bethanechol, healthy volunteers (FIG. 4: 0.1% w/w gel)): 3 to 5 h
concentration producing the maximal effect on resting anal sphincter pressure ([2]; topical, 0.05%, 0.1%, 0.5% and 1% w/w tested, higher concentrations no additional effect): 0.1%

COc1ccc([C@@H]2Sc3ccccc3N(CCN(C)C)C(=O)[C@@H]2OC(C)=O)cc1 [diltiazem]
effect on mean anal resting pressure ([3]; 60 mg oral once a day): no notable effect
patients who noticed postural dizziness ([3]; 60 mg oral twice a day): two
mean anal resting pressure reduced by ([3]; 60 mg oral twice a day, P=0.008): 17%
mean resting anal pressure lowered by ([4]; 2% w/w cream, topical to anus, ten healthy volunteers, maximal effect, P<0.0001): 28%
effect on resting anal sphincter pressure ([4]; topical cream 0.1%, 0.5%, 1%, 2%, 5% and 10%): dose dependent reduction
effect of a single application sustained for ([4]; topical diltiazem, healthy volunteers (FIG. 2: 1% w/w gel)): 3 to 5 h
patients with complete resolution of symptoms ([5]; 2% cream three times daily, 7 patients studied, follow up 2 to 5 weeks): 5 patients
patients with complete healing of the fissure [5, 10]: 3 patients
patients with partial healing of the fissure [5, 10]: 2 patients
patients with reduction of the maximum resting anal sphincter pressure to within normal limits ([5]; 2% cream three times daily, of the 5 symptom-free patients): four
patients symptom free after two weeks of treatment ([5]; 2% cream, of the 2 patients with only two weeks of treatment): one
effect on internal anal resting pressure [6]: reduce internal anal resting pressure

O=[N+]([O-])OCC(CO[N+](=O)[O-])O[N+](=O)[O-] [glyceryl trinitrate]
effect on internal anal resting pressure [7]: reduces the internal anal resting pressure

O=C(NC1CCN(CCc2c[nH]c3ccccc23)CC1)c1ccccc1 [indoramin]
reduction of maximum resting pressures in the anal canal [8]: 35.8%
